Test results: PubChem BioAssay (NCI)
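Assay format: 96-well plates, 48-hour exposure. The concentration for full growth arrest is given as TGI.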

What was measured:
Assay in all cases: DTP human tumour cell line panel, 48 h
XF 498 CNS = tested on: XF 498 CNS
DLD-1 colon = tested on: DLD-1 colon
DMS 273 small cell lung = tested on: DMS 273 small cell lung
SNB-78 CNS = tested on: SNB-78 CNS
KM20L2 colon = tested on: KM20L2 colon
M19-MEL melanoma = tested on: M19-MEL melanoma
LXFL 529 NSCLC = tested on: LXFL 529 NSCLC
HOP-18 NSCLC = tested on: HOP-18 NSCLC
DMS 114 small cell lung = tested on: DMS 114 small cell lung
RXF-631 renal = tested on: RXF-631 renal

| SMILES | TGI (XF 498 CNS) [µM] | TGI (DLD-1 colon) [µM] | TGI (DMS 273 small cell lung) [µM] | TGI (SNB-78 CNS) [µM] | TGI (KM20L2 colon) [µM] | TGI (M19-MEL melanoma) [µM] | TGI (LXFL 529 NSCLC) [µM] | TGI (HOP-18 NSCLC) [µM] | TGI (DMS 114 small cell lung) [µM] | TGI (RXF-631 renal) [µM] |
| --- | --- | --- | --- | --- | --- | --- | --- | --- | --- | --- |
| COc1cc2cc3c4c(cc(OC)c(OC)c4c2cc1OC)CCN3C(=O)OCCN1CCNCC1 | 29.4 | 29.1 | 26.5 | 31.4 | 24.9 | 19.6 | 28.3 | 30.7 | – | – |
| O=c1[nH]c2c(nc1NC13CC4CC(CC(C4)C1)C3)c(=O)oc1ccccc12 | > 100 | > 100 | > 100 | – | > 100 | > 100 | > 100 | – | > 100 | – |
| O=c1[nH]c(=O)n(C2OC(CO)C(O)C2O)cc1NN=NCc1ccccc1 (stereo not given) | > 100 | > 77.4 | > 100 | > 100 | > 100 | > 100 | > 100 | > 100 | 99.1 | > 100 |
| CCN(CC)CC1CCCCCCCCCCC1=O (stereo not given) | > 100 | > 100 | > 100 | > 100 | > 100 | > 100 | > 100 | – | > 100 | – |
| CO/N=C/c1cc(OC)c(OC)c(OC)c1 | > 100 | > 100 | > 100 | > 100 | > 100 | > 100 | > 100 | > 100 | > 100 | > 100 |
| CC1(C)COC(c2cccnc2/C=N/O)=N1 | > 100 | > 100 | > 100 | > 100 | > 100 | > 100 | > 100 | > 100 | – | > 100 |
| Cc1cc(N)c(C)c2c1[nH]c1ccc(O)cc12 | > 100 | – | > 100 | > 100 | – | > 100 | – | > 100 | – | – |
| CCOC(=O)C1(C#N)C(c2ccccc2)CC(O)(c2ccc(OC)cc2)C(C(=O)c2ccc(OC)cc2)C1c1ccccc1 (stereo not given) | – | > 100 | > 100 | > 100 | > 100 | > 100 | > 100 | > 100 | > 100 | – |
